Reference: patent US12600696B2 (XENIOPRO GMBH, priority 2017, dated 2026)

Columns and labels:
Format in all cases: cell-based
[1] = system: BHY cells (human oral squamous cell carcinoma cells); assay: alamarBlue proliferation assay with BHY cells; settings: 72 h, 3 days treatment, single assay (preliminary), relative to DMSO basis level 1.0, read-out: equally weighted arithmetic mean (AVE) of six normalized fluorescence intensity values, activity range (RES: AVEw)
Experimental: Compounds were tested on BHY cells using the alamarBlue® proliferation assay in analogy to the above described method with seeding the cells at an initial number of 4000 cells per 96-well and a duration of treatment with compounds for 3 days.
BHY cells were cultivated according to the protocol of the provider (but at 5% instead of 10% CO2) in DMEM medium (Fisherscientific, #11584456) containing 10% fetal bovine serum (Fisherscientific, #15517589).
A compound is considered as a growth inhibitor of BHY cells, if—at a reference concentration of 40 μM—the equally weighted arithmetic mean (AVE) of the six normalized fluorescence intensity values after addition of the corresponding standard deviation amounts to 0.9 or lower, in particular to 0.8 or lower, 0.7 or lower, 0.6 or lower, 0.4 or lower, and 0.2 or lower, relative to the overall basis level of 1.0. The overall basis level was calculated as the weighted arithmetic mean (AVEw) of all normalized values from the DMSO control measurements. The corresponding combined standard deviation for the DMSO values amounts to less than 1·10^−2. The corresponding standard deviations for the tested compounds were calculated including the Gauß′ error propagation associated with the performed calculation for the normalization. The weighted arithmetic mean (AVEw) and the combined standard deviation for RES was calculated in analogy to DMSO. Outlier analyses were performed as described above.

[2] = system: TT cells (human medullary thyroid carcinoma cells); assay: alamarBlue proliferation assay with TT cells; settings: Homo sapiens, 120 h, 40 μM, relative to DMSO basis level 1.0, read-out: weighted arithmetic mean (AVEw) of normalized fluorescence intensity, activity range
Experimental: (§1) The antiproliferative activities of compounds falling under formula I, formula II, formula III, formula IV and formula V were investigated on cells or cell lines originating from a disorder of the myeloid cell compartment, the neuroendocrine system, the cervix, and the mucosal epithelium, as well as from the skin epithelium. To this end, HL-60 cells, TT cells, HeLa cells, CAL-27 cells and human primary epidermal keratinocytes (HPEK) were seeded into 96-well plates suitable for fluorescence assays (CORNING #3598) at following initial cell numbers: 1000 cells per well for HL-60; 9000 cells per well for TT; 2000 cells per well for HeLa, 2000 cells per well for CAL-27, 2000 cells per well for HPEK. The cells were treated with compounds at indicated final concentrations (diluted from the 1000× stock-solutions in DMSO to a final DMSO concentration of 0.1% v/v) or with the empty carrier DMSO at 0.1% v/v as control for 5 days. At day 5 after starting the treatments the cells were subjected to the alamarBlue® Proliferation Assay (Bio-Rad Serotec GmbH, BUF012B) according to the protocol of the manufacturer. The readout was taken with a multi-well plate-reader in the fluorescence mode with applying a filter for excitation at 560 nm (band width 10 nm) and for emission at 590 nm (band width 10 nm). Resveratrol (RES) treatment was included as control for growth inhibition.
(§2) The assays were performed in duplicate or more replicates of independent single experiments each containing a six-fold replicate for every condition. For every individual plate, the measured fluorescence intensity values of the conditions with compound treatment were normalized against the corresponding equally weighted arithmetic mean of the fluorescence intensity values of the six DMSO treated control wells in order to obtain the relative values to a baseline level of 1.0. The statistical calculations were performed in analogy to the luciferase assay as described above. To this end, two independent outlier analyses were performed according to the methods by Peirce and Chauvenet (Ross, Journal of Engineering Technology 2003, 1-12). Outliers confirmed by at least one of the methods were excluded from the calculations but not more than one value out of six per compound within a single experiment. The weighted arithmetic mean AVEw for each compound was calculated from the normalized values over all independent replicates of the single experiments comprising the six replicates each. The corresponding standard deviation for the weighted arithmetic mean was calculated according to the method described by Bronstein et al. (Bronstein, Semendjajew, Musiol, Mühlig, Taschenbuch der Mathematik, 5th edition 2001 (German), publisher: Verlag Harri Deutsch, Frankfurt am Main and Thun) and was combined with the Gauß′ error propagation associated with the performed calculation for the normalization. The resulting standard deviation is herein referred to as “combined standard deviation”.
TT cells were cultivated according to the protocol of the provider in F-12K medium (Fisherscientific, #11580556, or ATCC, #ATCC-30-2004) containing 10% fetal bovine serum (Fisherscientific, #15517589).
(§3) A compound is considered as a growth inhibitor of TT cells, if—at a reference concentration of 40 μM—the weighted arithmetic mean of the normalized fluorescence intensity values after addition of the corresponding combined standard deviation amounts to 0.9 or lower, in particular to 0.8 or lower, 0.7 or lower, 0.6 or lower, 0.4 or lower, and 0.2 or lower, relative to the overall basis level of 1.0. The overall basis level was calculated as the weighted arithmetic mean of all normalized values from the DMSO control measurements in analogy to the calculations performed for the test-compounds. The corresponding combined standard deviation for the DMSO values amounts to less than 1·10^−2.

[3] = system: HPEKp cells (human epidermal keratinocyte progenitors, pooled); assay: alamarBlue proliferation assay with HPEKp cells; settings: 120 h, relative to DMSO basis level 1.0, read-out: weighted arithmetic mean (AVEw) of normalized fluorescence intensity, activity range
Experimental: as §1, §2
HPEKp cells were cultivated according to the protocol of the provider in CnT-Prime epithelial culture medium (CELLnTEC, #CnT-PR, a fully defined, low calcium formulation, completely free of animal or human-derived components) without addition of further components.
as §3, with “HPEKp” for “TT”, “10” for “40”

[4] = system: CAL-27 cells (human tongue squamous cell carcinoma cells); assay: alamarBlue proliferation assay with CAL-27 cells; settings: Homo sapiens, 120 h, 20 μM, 5 days, relative to DMSO baseline level of 1.0, read-out: AVEw, weighted arithmetic mean of normalized fluorescence intensity values (Activity Range), CAL-27 proliferation
How it was run: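 CAL-27 cells seeded at 2000 per well, exposed to compound in 0.1% DMSO for 5 days, then alamarBlue fluorescence (ex 560/em 590 nm). Values normalized to DMSO wells (1.0) as weighted means with combined standard deviation; growth inhibition judged at 20 μM reference concentration.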

[5] = system: HL-60 cells (human acute myeloid leukemia cells); assay: alamarBlue proliferation assay with HL-60 cells; settings: 120 h, 5 days, relative to DMSO baseline level of 1.0, read-out: AVEw, weighted arithmetic mean of normalized fluorescence intensity values (Activity Range), HL-60 proliferation
How it was run: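 HL-60 cells (1000/well, RPMI 1640 + 10% FBS) exposed to compound in 0.1% DMSO for 5 days, then alamarBlue fluorescence read (ex 560/em 590 nm). Signals normalized to six DMSO wells per plate (baseline 1.0); outliers removed by Peirce/Chauvenet; weighted mean with combined SD; inhibitor criterion judged at 20 μM reference concentration.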

| Compound | activity at 40 µM [1] [%] | activity at 40 µM [2] [%] | activity at 10 µM [3] [%] | activity at 20 µM [4] [%] | activity at 20 µM [5] [%] |
| --- | --- | --- | --- | --- | --- |
| O=C(NO)c1ccc(Oc2ccc(C3CCCCC3)cc2)c(F)c1 [Compound 540, 4-(4-cyclohexylphenoxy)-3-fluoro-N-hydroxybenzamide] | 0 to 20 | 20 to 40 | 20 to 40 | 0 to 20 | 0 to 20 |
| CCC(C)(C)c1ccc(Oc2ncc(C(=O)NO)cc2F)cc1 [Compound 633] | 20 to 40 | – | – | 0 to 20 | 0 to 20 |
